Assay results: patent US20070128589A1, “Substrates, sensors, and methods for assessing conditions in females” (priority 2005, published 2007)
No end group written: not given here.

Columns and labels:
Candida albicans = test system: Candida albicans
Method: For example, in one embodiment, the H2 peptide was conjugated to Blue dye #1 as a reporter on the C-terminal end. The N-terminal end was conjugated to Affigel 10 beads (BioRad). The beads were exposed to an aliquot of overnight grown Candida albicans for a period of 24 hours at 37° C. A control set of beads was also exposed to culture medium. Blue dye released from the beads by the action of Candida albicans was collected on a membrane to produce a clear signal.
Food grade sensors can be used in consumer products. […] The resulting beads were incubated with growth medium (1:2 BHI/PBS) alone (control) and an overnight grow-up of Candida albicans for 24 hours at 37° C. […] The preferred ion exchange membranes to collect the free dye are SB6407 and Biodyne B (Pall Life Sciences, Ann Arbor, Mich. and positively charged PVDF (Millipore)). These membranes have strong positively-charged quaternary ammonium groups.
In one example, dye-conjugated Affigel 10 beads were exposed to Candida albicans supernatant (20 μl of 1:10 dilution of beads) or a medium control (1:2 BHI/PBS) for 24 hours. The color was collected with a positively charged membrane (SB6407) in with the bead reaction.

C. albicans = assay: Identification of peptide targets for C. albicans; assay type: biochemical, Candida albicans
Method: Clones of green fluorescent protein (GFP) tagged conjugates were used to identify targets in a high throughput screen. Each clone contained a plasmid harboring a gene that contains a polyhistidine tag (6 his), 30 random nucleotides (corresponding to 10 random amino acids), and green fluorescent protein (GFP). On the day before a screen, 864 glowing clones are grown up overnight at 37° C. in deep well microtiter plates (1 ml/well). In the morning, the cultures can be induced with 1 mM IPTG for 1 hour, the cells can be centrifuged for five minutes, and then the media can be decanted. Lysozyme (2 mg/ml) can be added and the cells can be flash frozen 3 times. The samples can be treated with 100 ul/well of DNAse I at 37° C. for 30 minutes to reduce the viscosity by digesting the DNA. An aliquot of the sample can then be transferred to a microtiter filter plate containing 10 μl of nickel-NTA resin. The pipeting of the reagents (IPTG, lysozyme, DNAse I, and beads) can be performed with a Tecan Genesis RSP 100 Robot with Gemini version 4.0 software.
The plates can be filtered by centrifugation three times with PBS to remove unbound material and then the GFP-peptide-bound bead can be incubated with microbial extract for 20 min at 37° C. The sample can be filtered and the flow through fluorescence can be compared with the background from the prior wash. If the microbe has a protease that finds the ideal target, then the release of GFP fluorescence from the bead can be over 100 times greater than the background.
(SEQ ID NO: 8), the sequence QKTTIKKLKH (H2) (SEQ ID NO: 9), the sequence KPKAFLKVGN (R8) (SEQ ID NO: 6), the sequence TPIQIHTILH (SEQ ID NO: 10), the sequence […] (SEQ ID NO: 11), the sequence […] (SEQ ID NO: 12), and the sequence […] (SEQ ID NO: 13).

[1] = test system: Gardnerella vaginalis, Lactobacillus acidophilus, and Escherichia coli; assay: HRP-peptide-Affigel conjugates: initial specificity study with other vaginal bacteria; assay type: biochemical
[2] = test system: C. albicans clinical isolates; conditions: for reaction with ten clinical C. albicans isolates (released HRP): HRP-peptide-Affigel conjugate, cell-free growth medium, ten minutes, FIG. 24; for sensitivity: all ten clinical isolates
Method: For example, ten clinical C. albicans isolates kindly provided by Dr. Andrew Onderdonk (Brigham and Women's Hospital) were tested alongside a strain obtained from C. albicans ATCC. The yeast cells were grown in YCB-BSA (23.4 g yeast carbon base, 2 g yeast extract, 10 g dextrose, and 5 g of BSA per liter—adjusted to pH 5.0). An aliquot of the cell-free growth medium was mixed with an HRP-peptide-Affigel conjugate for ten minutes and the amount of released HRP was determined.

HSV protein UL26 = HSV protein UL26 (Human herpesvirus 1, UniProt P10210); conditions: cited from earlier work
Chain of HSV protein UL26 (P10210 whole entry, the tested form may be a part): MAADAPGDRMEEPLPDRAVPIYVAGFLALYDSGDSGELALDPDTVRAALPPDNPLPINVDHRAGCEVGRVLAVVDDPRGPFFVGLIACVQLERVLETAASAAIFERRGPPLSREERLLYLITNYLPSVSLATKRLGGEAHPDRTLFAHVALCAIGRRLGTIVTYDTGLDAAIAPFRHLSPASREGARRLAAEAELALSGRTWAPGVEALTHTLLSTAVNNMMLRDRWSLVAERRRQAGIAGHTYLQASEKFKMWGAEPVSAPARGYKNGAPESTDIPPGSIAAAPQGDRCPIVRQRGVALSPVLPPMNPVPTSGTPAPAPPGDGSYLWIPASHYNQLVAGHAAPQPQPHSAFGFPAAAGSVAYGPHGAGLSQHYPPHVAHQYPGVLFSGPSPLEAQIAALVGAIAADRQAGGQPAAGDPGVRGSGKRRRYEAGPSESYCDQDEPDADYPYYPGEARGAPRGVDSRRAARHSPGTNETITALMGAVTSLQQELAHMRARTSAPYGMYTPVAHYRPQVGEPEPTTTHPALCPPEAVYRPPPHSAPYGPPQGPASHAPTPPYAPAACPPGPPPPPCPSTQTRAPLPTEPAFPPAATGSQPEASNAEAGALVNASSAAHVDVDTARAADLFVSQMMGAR

[3] = test system: proteases produced by Trichomonas vaginalis; assay: High throughput screening of GFP-random peptide fusion library with Trichomonas vaginalis cell-free growth medium; assay type: biochemical; conditions: 4,900 clones screened, LYI entamoeba medium
Method: Peptide substrates for proteases produced by the vaginal pathogen Trichomonas vaginalis were also identified. This microbe was grown in LYI entamoeba medium overnight and the cell-free growth medium was used in the high throughput screening of 4,900 clones from a GFP-random peptide fusion library.
Peptides 39H9 and 42D3 were altered to remove the lysine residues prior to peptide synthesis. The peptides were conjugated to HRP and affigel 10 beads and produced a visible color signal in five minutes at 650 nm when an aliquot of the protease-treated product was incubated with tetramethyl benzidine.

Sequence | identified as peptide target for C. albicans (C. albicans) | identified as peptide detecting Trichomonas vaginalis [3] | other results
QKTTIKKLKH (also: HRP or Blue dye #1 Affigel conjugate) [H2] | peptide targets for C. albicans |  | blue dye released from beads / peptide hydrolysis, color collected on membrane (Candida albicans; overnight grown Candida albicans, 24 hours at 37° C., no signal from control medium): highly visible blue color; clipping by other vaginal bacteria [1]: not significantly clipped; reaction with ten clinical C. albicans isolates (released HRP) [2]: reacted strongly; sensitivity [2]: 100%
ASNAEAGALVNASSAAHVDV |  |  | cleavage site (HSV protein UL26): between the 12th amino acid (alanine) and the 13th amino acid (serine); specificity of UL26 for the sequence (HSV protein UL26): strong specificity
QRTTIRRLRH [modified H2 peptide] |  |  | time to visible blue dye release (Candida albicans; collection of color in a feminine pad): approximately 3 hours
INLSKKQIYP (Peptide Substrate of Candida spp.) [peptide target for C. albicans] | peptide targets for C. albicans |  | 
LHNYVLLRNIL (Peptide Substrate of Trichomonas vaginalis) [38H8/T7, peptide detecting Trichomonas vaginalis] |  | detect Trichomonas vaginalis | 
QINKALKQPK (Peptide Substrate of Trichomonas vaginalis) [41El 1/T7, peptide detecting Trichomonas vaginalis] |  | detect Trichomonas vaginalis | 
NKTNKTKHAY (Peptide Substrate of Trichomonas vaginalis) [42H8/T7, peptide detecting Trichomonas vaginalis] |  | detect Trichomonas vaginalis | 
KPSIKPTPPY (Peptide Substrate of Candida spp.) [peptide target for C. albicans] | peptide targets for C. albicans |  | 
QIPKSLHPIT (Peptide Substrate of Trichomonas vaginalis) [42D3/T7, peptide detecting Trichomonas vaginalis] |  | detect Trichomonas vaginalis | 
KPKAFLKVGN (also: histidine tag) [R8] | peptide targets for C. albicans |  | clipping by other vaginal bacteria [1]: not significantly clipped; reaction with ten clinical C. albicans isolates (released HRP) [2]: reacted strongly; sensitivity [2]: 100%
LYPSQNPVIK (Peptide Substrate of Candida spp.) [peptide target for C. albicans] | peptide targets for C. albicans |  | 
SKQQDIIKKY (Peptide Substrate of Trichomonas vaginalis) [44E6/T7, peptide detecting Trichomonas vaginalis] |  | detect Trichomonas vaginalis | 
NNPLPKIQKN (Peptide Substrate of Trichomonas vaginalis) [38H9/T7, peptide detecting Trichomonas vaginalis] |  | detect Trichomonas vaginalis | 
KNPKLQDHYI (Peptide Substrate of Trichomonas vaginalis) [44B5/T7, peptide detecting Trichomonas vaginalis] |  | detect Trichomonas vaginalis | 
NITKKSTKII (Peptide Substrate of Candida spp.) [peptide target for C. albicans] | peptide targets for C. albicans |  | 
